# Results published in patent publication US7067500B2, “Betaines as adjuvants to susceptibility testing and antimicrobial therapy” (priority 1997, dated 2006).
# Entries after “also recorded” stand apart in the source; their conditions may differ. Where a name gives a salt, the structure may show the parent alone.
# What was measured:
# [1] = tested on: M. tuberculosis isolates ATCC 27294 and 571/573-BAL; experiment: Further studies of the range of activity of betaines; format: cell-based, Mycobacterium tuberculosis
# Excerpt: FIGS. 32A and 32B show the variability when simple (i.e., unmodified) carboxybetaines with methylene (Detain PB and Velvetex OLB), ethylene (C18-carboxyethylbetaine), and propylene (CB-18) bridges were employed in this assay. This is consistent with the data of Tsubone K. et al., Jour. Pharm. Sci. 80:441–444 (1991) wherein toxicity is correlated with bridge length.
# While the apparent bactericidal activity of the amine oxide was anticipated based on the use of these compounds in antimicrobial formulations (Michaels, E. B., U.S. Pat. No. 564,454 and U.S. Pat. No. 641,728), the activity of the Brij compounds and Crosultaine E-30 was surprising. […] Crosultaine E-30 has both an amidopropyl linkage and a hydroxypropyl bridge. […] Historically, the nonionic detergents have been reported to be contaminated with impurities, and only when purified stimulate growth (Dubos, R. J. et al., Jour. Exptl. Med. 83:409–423 (1946)). Impurities might explain the results with the Brij detergents and Crosultaine E-30.
# [2] = tested on: M. tuberculosis isolate 571/573-BAL; experiment: Detergent screen for induced susceptibility, BACTEC 12B growth curves; format: cell-based, Mycobacterium tuberculosis; details: for RESULT (effect on growth): 571/573-BAL, detergent approximately 17 μg/ml final, BACTEC 12B supplemented with PANTA or P/cax (ceftriaxone 8 μg/ml)
# [3] = tested on: M. tuberculosis isolates ATCC 27294 and 571/573-BAL; experiment: CB-18 vs. EDTA, BACTEC 12B growth curves; format: cell-based, Mycobacterium tuberculosis
# [4] = tested on: M. tuberculosis isolates ATCC 27294 and 571/573-BAL; experiment: CB-18 and TMA-18 comparison, BACTEC 12B growth curves; format: cell-based, Mycobacterium tuberculosis
# Method: If the mechanism of CB-18's action was similar to that of the quaternary salts (i.e., generally deleterious), then some delay would be anticipated. For example, if the CB-18 effect was a consequence of the surface active property of the detergent, then disruption of cellular function would not only have nonspecific long term consequences, but would also be independent of the isolate. In an effort to examine the similarity in the mechanism, CB-18 was assayed in parallel with trimethyloctadecylammonium bromide (TMA-18 (Aldrich, Milwaukee, Wis., Cat.# 35,924-6): made as a 100× stock in 1:1, water:isopropanol similar to that described for CB-18 in Example 1). The experimental design is outlined in FIG. 6.
# In this experiment both ATCC 27294 and 571/573-BAL were cultivated on 7H11-selective media, and then serially diluted in NALC/citrate to 10,000×. The planting solution (i.e., the final dilution (50,000×)) was manufactured by diluting into either buffer, 0.5 mM CB-18, or 0.1 mM TMA-18 (all concentrations represent the final detergent concentration in the planting solution). […] The final concentration of CB-18 during incubation was approximately 17 μg/ml. The final concentration of TMA-18 during incubation was approximately 3.4 μg/ml. […] FIGS. 7A–7C show one experiment wherein ATCC 27294 cells were planted in the different solutions described above, and FIGS. 8A–8C show a parallel experiment wherein 571/573-BAL cells were planted in the same series.
# [5] = tested on: M. fortuitum complex isolates ATCC 6841 and 495-JHH; experiment: CB-18 titration, BACTEC 12B growth curves; format: cell-based; details: M. fortuitum 495-JHH; cefoxitin (8 μg/ml in PANTA) without CB-18
# gram negative bacteria = experiment: Antibiotic sensitivities of BACTEC 12B/PANTA contaminants (MicroScan panels); format: cell-based; details: ceftazidime at 8 μg/ml; contaminants of CB-18 processed specimens on 12B/PANTA
# Excerpt: Preliminary studies designed to assess the nature of contaminants breaking through the BACTEC 12B liquid media supplemented with PANTA used discarded respiratory specimens (n=277) from Quest Diagnostics—Baltimore. (NOTE: the BACTEC 12B liquid culture system is one of the standard methods in the art for culturing mycobacteria, and PANTA is an antimicobial supplement containing polymyxin B, azlocillin, nalidixic acid, trimethoprim, and amphotericin B: this culture system is referred to herein as “12B/PANTA” (Becton Dickinson, Cockeysville, Md.)) Specimens were collected and processed with CB-18 according to the procedure above. Approximately 400–500 μl of each sediment was planted on 12B/PANTA. All contaminants were identified by morphology and/or gram stain and then differentiated as either oxidase/catalase, positive or negative. Contaminants were then speciated, and antibiotic sensitivities determined, using MicroScan® panels (Dade, West Sacramento, Calif.).
# [6] = tested on: M. tuberculosis isolates ATCC 27294, 571/573-BAL, 061-TBR, 52–96-BOL, and 57–96-BOL; experiment: Antibiotic screen with additional antibiotics in the presence and absence of CB-18; format: cell-based, Mycobacterium tuberculosis; details: ceftazidime alone (absence of PANTA) at 16 μg/ml final
# Method: The experimental design of FIG. 16 was also used to examine the breadth of the CB-18 effect with respect to other, non-β-lactam antibiotics. In these experiments antibiotics (Sigma, St. Louis, Mo.) were manufactured as stock solutions in water or buffer and then diluted with reconstitution fluid and added to the culture bottles prior to inoculation. Nystatin (100 μg/ml final), polymixin B (300 units final), erthromycin (4 μg/ml final), oleandomycin (2 μg/ml final), penicillin G (8 μg/ml final), nalidixic acid (30 μg/ml final), lincomycin (2 μg/ml final), ceftriaxone (32 μg/ml final), and ceftazidime (16 μg/ml final) (ceftazidime was manufactured in 10% sodium bicarbonate) were tested on ATCC 27294, 571/573-BAL, 061-TBR, 52–96-BOL, and 57–96-BOL. All experiments used R.F. and P-caz as controls, and all bottles wherein CB-18 was added used a final concentration of 17 μg/ml. FIG. 28 presents the results of the 571/573-BAL isolate with erythromycin and ceftriaxone. FIG. 29 presents the results of the 061-TBR isolate with polymyxin B, oleandomycin, lincomycin, naldixic acid, penicillin G, and ceftriaxone. FIG. 30 presents the results of the 57–96-BOL isolate with naldixic acid, penicillin G, ceftazidime and ceftriaxone.
# [7] = tested on: M. tuberculosis isolate 571/573-BAL; experiment: Planting in lecithin at low inocula, BACTEC 12B growth curves; format: cell-based, Mycobacterium tuberculosis
# Excerpt: In this experiment the 571/573-BAL isolate was cultivated on 7H11-selective media, serially diluted in NALC/citrate to approximately 1,000×. In an attempt to examine how the inoculum impacted the results of this assay three different stocks were manufactured, one series in buffer and one series in CB-18. […] The planting solutions were manufactured by mixing these three stocks 1:1 with either buffer or a buffered solution of lecithin (Sigma, St. Louis, Mo.; Cat.#: P 5394 (7.5% lecithin was made up as a 100× concentrate in 100% ethanol (3 grams in 40 mls) and diluted in the Tris buffer of Example 1 immediately prior to use)). The final dilutions of three different planting solutions were approximately 5000×, 25,000×, and 100,000×. The final concentration of CB-18 and lecithin in the appropriate planting solutions was approximately 0.5 mM. […] The final concentration of both lecithin and CB-18 during incubation was approximately 17 μg/ml.
# Aliquots of the three stocks (i.e., 2,500×, 12,500× and 50,000×) were also taken for quantitative culture by plating on 7H10 plates (Becton Dickinson, Cockeysville, Md.). […] FIG. 5A presents the 5,000× series planted in either buffer or buffer containing lecithin, and FIG. 5B presents the 5,000× series planted in CB-18 or CB-18 combined with lecithin. FIG. 5C presents the 25,000× series planted in either buffer or buffer containing lecithin, and FIG. 5D presents the 25,000× series planted in CB-18 or CB-18 combined with lecithin. FIG. 5E presents the 100,000× series planted in either buffer or buffer containing lecithin, and FIG. 5F presents the 100,000× series planted in CB-18 or CB-18 combined with lecithin.
compound,measurement,setting,value
"CCCCCCCCCCCCCCCCCC[N+](C)(C)CCC(=O)[O-] [C18-carboxyethylbetaine, N-(2-carboxyethyl)-N,N-dimethyl-1-octadecanaminium, inner salt]",range of activity,[1]; ATCC 27294,7 to 13 µg/mL
same,RESULT (effect on growth),[2],strong ability to suppress growth when combined with antibiotics; also recorded: Complete suppression of growth
same,CB-18 effect in the methods of the invention,[2]; carboxybetaines tested,show the CB-18 effect
O=C(O)CN(CCN(CC(=O)O)CC(=O)O)CC(=O)O [EDTA],effect on growth characteristics,"[3]; ATCC 27294 and 571/573-BAL, EDTA approximately 17 μg/ml, R.F. or P/cax",no effect
"[Cl-].[Cl-].[Mg+2] [MgCl2, reference compound]",effect on growth character in the presence of CB-18,"[3]; 571/573-BAL, five-fold molar excess of MgCl2 (85 μg/ml) added to CB-18 17 μg/ml, R.F.",no improvement
same,effect on the detrimental effects of the CB-18/P-cax combination,"[3]; MgCl2 85 μg/ml added to CB-18 17 μg/ml with P-cax, both isolates, especially 571/573-BAL","alleviate, to some degree"
"CCCCCCCCCCCCCCCCCC[N+](C)(C)CCCS(=O)(=O)[O-] [SB-18, N-octadecyl-N,N-dimethyl-3-ammonio-1-propane-sulfonate]",range of activity,[1]; 571/573-BAL,20 to 75 µg/mL
same,RESULT (effect on growth),[2],significant activity; also recorded: Modest suppression
"CCCCCCCCCCCCCCCCCC[N+](C)(C)C.[Br-] [TMA-18, trimethyloctadecylammonium bromide, reference compound]",effect on growth,"[4]; 571/573-BAL, 3.4 μg/ml TMA-18, R.F., PANTA or P/cax",significant delays were observed in all bottles
same,effect on growth,"[4]; ATCC 27294, 3.4 μg/ml TMA-18, R.F., PANTA or P/cax",significant delays in all bottles
same,effect on growth,"[4]; ATCC 27294 and 571/573-BAL, TMA-18 3.4 μg/ml (FIGS. 7C and 8C)",bacteriostatic in isolation; also recorded: inhibitory at low concentrations
same,RESULT (effect on growth),[2],Complete suppression of growth
"CO[C@@]1(NC(=O)Cc2cccs2)C(=O)N2C(C(=O)O)=C(COC(N)=O)CS[C@@H]21 [cefoxitin, reference compound]",effect on growth,[5],unaffected
CC(C)(O/N=C(\C(=O)N[C@@H]1C(=O)N2C(C(=O)[O-])=C(C[n+]3ccccc3)CS[C@H]12)c1csc(N)n1)C(=O)O [ceftazidime],gram negative bacteria sensitive to ceftazidime,gram negative bacteria,40 of the 48
same,effect on isolates relative to other antibiotics tested,[6],one of the least innocuous compounds
phosphatidylcholine [lecithin],ability to overcome the detrimental effect of CB-18,"[7]; lecithin and CB-18 approximately 17 μg/ml each, CB-18 alone and in combination with antibiotics",able to overcome the detrimental effect of CB-18
same,ability to overcome the deleterious effect of the antibiotic formulation (P/caz),"[7]; lecithin approximately 17 μg/ml, absence of CB-18","ability to overcome, to some degree"
same,impact on the sensitivity of the BACTEC 12B assay,"[7]; lecithin approximately 17 μg/ml, no CB-18",little if any impact
